The values below come from ChEMBL document CHEMBL1142710, “3D-QSAR comparative molecular field analysis on opioid receptor antagonists: pooling data from different studies” (J Med Chem, 2005).

Structures are written as SMILES.

One may read the Ki as a measure of affinity in units of concentration, obtained from inhibition or displacement. Low readings indicate higher affinity, high ones lower affinity.

Experiment [1] concerns the target T1, Mu-type opioid receptor (Rattus norvegicus, UniProt P33535). Briefly: Binding affinity against Opioid receptor mu 1 from rat brain membranes using [3H]DAMGO.
For experiment [2], the target named is T2, Delta-type opioid receptor (Rattus norvegicus, UniProt P33533). Kind of experiment: Binding affinity against Opioid receptor delta 1 from rat brain membranes using [3H]DADLE.
Experiment [3] addresses T3, Kappa-type opioid receptor (Cavia porcellus, UniProt P41144). Briefly: Binding affinity against Opioid receptor kappa 1 from guinea pig brain membranes using [3H]U-69593.
The target in experiment [4] is T1, Mu-type opioid receptor. Kind of experiment: Affinity against opioid receptor mu 1 in rat brain membranes determined in a competitive binding assay using [3H]DAMGO as competitive ligand (Compound 62). Type of experiment: cell membranes.
For experiment [5], the target named is T2, Delta-type opioid receptor. Kind of experiment: Affinity against opioid receptor delta 1 in rat brain membranes determined in a competitive binding assay using [3H]DADLE as competitive ligand (Compound 62). The experiment is classed as cell membranes.
Experiment [6] concerns the target T3, Kappa-type opioid receptor. Kind of experiment: Affinity against opioid receptor kappa 1 in guinea pig brain membranes determined in a competitive binding assay using [3H]U-69593 as competitive ligand (Compound 62). The experiment is classed as cell membranes, Membrane.

Turning to `CCCCOc1cccc2c1C13CCN(CC4CC4)C(C2)[C@]1(OCCCc1ccccc1)CCC(=O)C3` (some centres not stated), the Ki at Mu-type opioid receptor [1] is 14.8 nM; in experiment [2], 234 nM; in experiment [3] it was 151 nM.

As to `C=C(C)CN1CCC23c4c5ccc(O)c4O[C@H]2C(=O)C2(CCc4ccccc42)C[C@@]3(O)C1C5` (some centres not stated), the Ki is 2000 nM on Mu-type opioid receptor [1], 40.7 nM in experiment [2] and 1000 nM in experiment [3].

Consider `Oc1ccc2c3c1O[C@H]1c4ncc(-c5ccccc5)cc4C[C@@]4(O)C(C2)N(CC2CC2)CCC314` (some centres not stated), for which the figures for the Ki (on Mu-type opioid receptor [1]; in experiment [2]; in experiment [3]) were 13.5 nM, 0.871 nM and 17.8 nM, respectively.

On to `CN1CCC23c4c5ccc(O)c4O[C@H]2c2ncc(-c4ccc(Br)cc4)cc2C[C@@]3(O)C1C5` (some centres not stated), for which the Ki on Mu-type opioid receptor [1] was 195 nM; in experiment [2], 3.98 nM; in experiment [3], 437 nM.

Consider `Oc1ccc2c3c1O[C@H]1c4nccc(-c5ccccc5)c4C[C@@]4(O)C(C2)N(CC2CC2)CCC314` (some centres not stated), for which the values for the Ki (at Mu-type opioid receptor [1]; in experiment [2]; in experiment [3]) were 191 nM, 72.4 nM and 263 nM, respectively.

Regarding `CN1CCC23c4c5ccc(O)c4O[C@H]2c2ncc(-c4ccc(Cl)cc4)cc2C[C@@]3(O)C1C5` (some centres not stated), the Ki was 229 nM on Mu-type opioid receptor [1], 3.89 nM in experiment [2] and 468 nM in experiment [3].

Regarding `CCCCCCOc1cccc2c1C13CCN(CC4CC4)C(C2)[C@]1(OC)CCC(=O)C3` (some centres not stated), the Ki at Mu-type opioid receptor [1] was 44.7 nM; in experiment [2], 1170 nM; in experiment [3] it was 437 nM.

For `C=C(C)CN1CCC23c4c5ccc(O)c4O[C@H]2C(=O)/C(=C\c2ccccc2)C[C@@]3(O)C1C5` (some centres not stated), the figures for the Ki (on Mu-type opioid receptor [1]; in experiment [2]; in experiment [3]) were 4470 nM, 209 nM and 4470 nM, respectively.

Regarding `C=C(N)NCCCC(=O)NC1CC2CC(c3cccc(O)c3)(C1)C(C)CN2CCCc1ccccc1` (configuration not stated), the Ki is 87.1 nM at Mu-type opioid receptor [1], 1740 nM in experiment [2] and 13.2 nM in experiment [3].

With `C=CCN1CCC23c4c5ccc(O)c4O[C@@]2(C)c2[nH]c4ccccc4c2C[C@@]3(OCC)C1C5` (some centres not stated), the values for the Ki (at Mu-type opioid receptor [1]; in experiment [2]; in experiment [3]) were 661 nM, 10.7 nM and 759 nM, respectively.

In the case of `CO[C@@]12CCC(=O)CC13CCN(CC1CC1)C2Cc1cccc(OC/C=C/c2ccccc2)c13` (some centres not stated), the Ki at Mu-type opioid receptor [1] is 28.2 nM; in experiment [2], 832 nM; in experiment [3] it was 363 nM.

On to `CC1CN(CCCc2ccccc2)C2CC(N)CC1(c1cccc(O)c1)C2` (configuration not stated), for which the results for the Ki (on Mu-type opioid receptor [1]; in experiment [2]; in experiment [3]) were 3.31 nM, 14.8 nM and 123 nM, respectively.

`CC1CN(CCCc2ccccc2)C2CC(NC(=O)CCCN(C)C)CC1(c1cccc(O)c1)C2` (configuration not stated): the Ki at Mu-type opioid receptor [1] is 57.5 nM; in experiment [2], 1450 nM; in experiment [3], 12 nM.

Turning to `Oc1ccc2c3c1O[C@H]1c4ncc(-c5ccc(Cl)cc5)cc4C[C@@]4(O)C(C2)N(CC2CC2)CCC314` (some centres not stated), the Ki on Mu-type opioid receptor [1] was 51.3 nM; in experiment [2] it was 2.19 nM; in experiment [3], 20 nM.

For the compound `CN1CCC23c4c5ccc(O)c4O[C@H]2c2ncc(-c4ccccc4)cc2C[C@H]3C1C5` (some centres not stated), the Ki at Mu-type opioid receptor [1] is 24 nM; in experiment [2] it was 4.9 nM; in experiment [3], 81.3 nM.

Consider `Oc1ccc2c3c1O[C@H]1c4ncncc4C[C@@]4(O)C(C2)N(CC2CC2)CCC314` (some centres not stated), for which the Ki at Mu-type opioid receptor [1] was 4.17 nM; in experiment [2] it was 3.47 nM; in experiment [3], 6.31 nM.

In the case of `Oc1ccc2c3c1O[C@H]1c4ncccc4C[C@@]4(O)C(C2)N(CC2CC2)CCC314` (some centres not stated), the Ki at Mu-type opioid receptor [1] was 1.51 nM; in experiment [2] it was 0.776 nM; in experiment [3], 8.71 nM.

As for `CN1CCC23c4c5ccc(O)c4O[C@H]2c2ncc(-c4ccc(Cl)c(Cl)c4)cc2C[C@H]3C1C5` (some centres not stated), the results for the Ki (at Mu-type opioid receptor [1]; in experiment [2]; in experiment [3]) were 93.3 nM, 3.72 nM and 275 nM, respectively.

Regarding `CN1CCC23c4c5ccc(O)c4O[C@H]2c2ncc(-c4ccc(Cl)cc4)cc2C[C@H]3C1C5` (some centres not stated), the values for the Ki (at Mu-type opioid receptor [1]; in experiment [2]; in experiment [3]) were 148 nM, 4.37 nM and 77.6 nM, respectively.

Consider `C=C(C)CN1CCC23c4c5ccc(O)c4O[C@H]2c2[nH]ncc2C[C@@]3(O)C1C5` (some centres not stated), for which the Ki is 141 nM at Mu-type opioid receptor [1], 39.8 nM in experiment [2] and 38 nM in experiment [3].

Turning to `C=C(C)CN1CCC23c4c5ccc(O)c4O[C@H]2c2oc4ccccc4c2C[C@@]3(O)C1C5` (some centres not stated), the Ki at Mu-type opioid receptor [1] is 1290 nM; in experiment [2], 8.13 nM; in experiment [3] it was 575 nM.

Regarding `Oc1ccc2c3c1O[C@H]1c4nc(-c5ccccc5)ncc4C[C@@]4(O)C(C2)N(CC2CC2)CCC314` (some centres not stated), the Ki at Mu-type opioid receptor [1] was 21.9 nM; in experiment [2], 15.8 nM; in experiment [3] it was 11 nM.

As for `Cc1ncc2c(n1)[C@@H]1Oc3c(O)ccc4c3C13CCN(CC1CC1)C(C4)[C@]3(O)C2` (some centres not stated), the Ki on Mu-type opioid receptor [1] is 6.03 nM; in experiment [2], 22.9 nM; in experiment [3] it was 25.1 nM.

Consider `CN1CCC23c4c5ccc(O)c4O[C@H]2c2ncc(-c4ccc(Cl)cc4Cl)cc2C[C@H]3C1C5` (some centres not stated), for which the Ki at Mu-type opioid receptor [1] was 97.7 nM; in experiment [2], 1.1 nM; in experiment [3], 407 nM.

For `Cc1cc(-c2ccccc2)c2c(n1)[C@@H]1Oc3c(O)ccc4c3C13CCN(CC1CC1)C(C4)[C@]3(O)C2` (some centres not stated), the Ki at Mu-type opioid receptor [1] is 155 nM; in experiment [2] it was 126 nM; in experiment [3] it was 676 nM.

For `Oc1ccc2c3c1O[C@H]1c4ncc(-c5ccc(Cl)cc5)cc4C[C@H]4C(C2)N(CC2CC2)CCC314` (some centres not stated), the Ki on Mu-type opioid receptor [1] is 61.7 nM; in experiment [2], 2.57 nM; in experiment [3] it was 6.03 nM.

Take `C=CCN1CCC23c4c5ccc(O)c4O[C@H]2c2ncc(-c4ccc(Cl)cc4)cc2C[C@@]3(O)C1C5` (some centres not stated): the Ki on Mu-type opioid receptor [1] was 468 nM; in experiment [2], 8.13 nM; in experiment [3], 75.9 nM.

As for `Oc1ccc2c3c1O[C@H]1c4nc(-c5ccccc5)ccc4C[C@@]4(O)C(C2)N(CC2CC2)CCC314` (some centres not stated), the Ki at Mu-type opioid receptor [1] was 11 nM; in experiment [2], 1.78 nM; in experiment [3] it was 18.2 nM.

As for `COc1cccc2c1C13CCN(CC4CC4)C(C2)[C@]1(OCCCc1ccccc1)CCC(=O)C3` (some centres not stated), the Ki at Mu-type opioid receptor [1] is 0.339 nM; in experiment [2] it was 17 nM; in experiment [3], 7.41 nM.

`CO[C@@]12CCC(=O)CC13CCN(CC1CC1)C2Cc1cccc(OCCCc2ccccc2)c13` (some centres not stated): the Ki at Mu-type opioid receptor [1] was 43.7 nM; in experiment [2], 1410 nM; in experiment [3], 209 nM.

For `COc1ccc2c(c1O)[C@]13CCN(CC4CC4)C(C2)[C@]1(O)CC1c2ccccc2NC1C3` (some centres not stated), the Ki is 1860 nM at Mu-type opioid receptor [1], 21.9 nM in experiment [2] and 3160 nM in experiment [3].

As to `O=C1CC[C@@]2(OCCCc3ccccc3)C3Cc4cccc(O)c4C2(CCN3CC2CC2)C1` (some centres not stated), the Ki on Mu-type opioid receptor [1] was 0.398 nM; in experiment [2], 5.01 nM; in experiment [3], 5.89 nM.

For `Cc1nc(-c2ccccc2)c2c(n1)[C@@H]1Oc3c(O)ccc4c3C13CCN(CC1CC1)C(C4)[C@]3(O)C2` (some centres not stated), the Ki at Mu-type opioid receptor [1] was 251 nM; in experiment [2] it was 324 nM; in experiment [3], 562 nM.

As for `O=C1CC[C@@]2(OCCCc3ccccc3)C3Cc4cccc5c4C2(CCN3CC2CC2)C1O5` (some centres not stated), the Ki at Mu-type opioid receptor [1] was 0.832 nM; in experiment [2] it was 45.7 nM; in experiment [3], 22.9 nM.

For `CO[C@@]12CCC(=O)CC13CCN(CC1CC1)C2Cc1cccc(OCc2ccccc2)c13` (some centres not stated), the Ki at Mu-type opioid receptor [1] is 11.5 nM; in experiment [2] it was 214 nM; in experiment [3] it was 56.2 nM.

Regarding `CN1CCC23c4c5ccc(O)c4O[C@H]2c2ncc(-c4ccc(Br)cc4)cc2C[C@H]3C1C5` (some centres not stated), the Ki on Mu-type opioid receptor [1] was 200 nM; in experiment [2] it was 5.01 nM; in experiment [3], 91.2 nM.

Turning to `C=C(N)NCCC(=O)NC1CC2CC(c3cccc(O)c3)(C1)C(C)CN2CCCc1ccccc1` (configuration not stated), the Ki is 5.25 nM at Mu-type opioid receptor [1], 56.2 nM in experiment [2] and 23.4 nM in experiment [3].

`CN1CCC23c4c5ccc(O)c4O[C@H]2c2ncc(-c4ccccc4)cc2C[C@@]3(O)C1C5` (some centres not stated): the Ki on Mu-type opioid receptor [1] is 25.7 nM; in experiment [2] it was 2.88 nM; in experiment [3], 363 nM.

Take `C=C(C)CN1CC[C@]23c4c5ccc(O)c4O[C@@H]2c2[nH]c4ccccc4c2C[C@@]3(O)[C@H]1C5`: the Ki was 7940 nM at Mu-type opioid receptor [1]; 4.68 nM in experiment [2]; 3800 nM in experiment [3]; 7940 nM on Mu-type opioid receptor [4]; 4.68 nM in experiment [5]; 3800 nM in experiment [6].

For `CCN1CC[C@]23c4c5ccc(O)c4O[C@@H]2c2[nH]c4ccccc4c2C[C@@]3(O)[C@H]1C5`, the Ki is 2510 nM at Mu-type opioid receptor [1], 5.01 nM in experiment [2] and 3020 nM in experiment [3].

Turning to `CCO[C@@]12Cc3c([nH]c4ccccc34)[C@]3(C)Oc4c(O)ccc5c4C31CCN(CC1CC1)[C@@H]2C5`, the values for the Ki (on Mu-type opioid receptor [1]; in experiment [2]; in experiment [3]) were 38.9 nM, 0.794 nM and 58.9 nM, respectively.

For the compound `CCCCOc1cccc2c1[C@]13CCN(CC4CC4)[C@H](C2)[C@]1(OC)CCC(=O)C3`, the results for the Ki (on Mu-type opioid receptor [1]; in experiment [2]; in experiment [3]) were 13.8 nM, 759 nM and 263 nM, respectively.

Consider `COc1cccc2c1[C@]13CCN(CC4CC4)[C@H](C2)[C@]1(OC)CCC(=O)C3` [CYPRODIME], for which the results for the Ki (on Mu-type opioid receptor [1]; in experiment [2]; in experiment [3]) were 10.7 nM, 417 nM and 110 nM, respectively.
